From ChEMBL document CHEMBL2331467, “Fungal transformation of cedryl acetate and α-glucosidase inhibition assay, quantum mechanical calculations and molecular docking studies of its metabolites” (Eur J Med Chem, 2013) come the findings set out here.

The target in this test is Alpha-glucosidase MAL62 (Saccharomyces cerevisiae, UniProt P07265). Description: Inhibition of yeast alpha-glucosidase using para-nitrophenyl alpha-D-glucopyranoside as substrate by spectrophotometric analysis.

The structures appear in SMILES notation.

Alpha-glucosidase MAL62, sequence (P07265 whole entry): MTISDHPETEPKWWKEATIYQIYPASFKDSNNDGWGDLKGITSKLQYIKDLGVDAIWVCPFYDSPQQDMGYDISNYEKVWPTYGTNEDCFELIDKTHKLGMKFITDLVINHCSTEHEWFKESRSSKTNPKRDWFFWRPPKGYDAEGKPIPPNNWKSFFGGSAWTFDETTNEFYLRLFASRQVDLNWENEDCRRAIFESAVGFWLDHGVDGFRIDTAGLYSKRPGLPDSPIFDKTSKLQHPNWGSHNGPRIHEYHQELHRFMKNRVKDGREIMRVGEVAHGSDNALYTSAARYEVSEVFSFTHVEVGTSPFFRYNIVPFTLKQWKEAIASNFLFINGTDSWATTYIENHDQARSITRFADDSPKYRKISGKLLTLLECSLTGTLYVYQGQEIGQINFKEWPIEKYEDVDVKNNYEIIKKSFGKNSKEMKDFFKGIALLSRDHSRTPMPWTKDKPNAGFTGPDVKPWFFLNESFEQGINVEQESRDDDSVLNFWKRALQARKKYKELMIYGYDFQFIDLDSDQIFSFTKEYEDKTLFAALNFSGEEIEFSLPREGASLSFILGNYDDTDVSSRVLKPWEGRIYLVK

As for `CC(=O)O[C@]1(C)C[C@H](O)[C@@]23C[C@H]1C(C)(C)[C@@H]2C[C@H](O)[C@H]3C`, the 50% inhibitory concentration (IC50) result is recorded as “Not Active”. `CC(=O)O[C@]1(C)C[C@H](O)[C@@]23C[C@H]1C(C)(C)[C@@H]2CC[C@]3(C)O`: the midpoint of inhibition, the IC50, lay at 690 µM. Regarding `C[C@@H]1CC[C@H]2C(C)(C)[C@H]3C[C@@]12CC[C@@]3(C)O` [CEDROL], the IC50 is 130 µM.

On to `CC(=O)O[C@]1(C)CC[C@@]23C[C@H]1C(C)(C)[C@@H]2CC[C@H]3C` [CEDRYL ACETATE], for which the 50% inhibitory concentration (IC50) was 94 µM. Molecule `OC[C@H]1NC[C@H](O)[C@@H](O)[C@@H]1O` [DUVOGLUSTAT] came in with a 50% inhibitory concentration (IC50) of 426 µM.

Broadly, the IC50 is the point on the concentration scale where inhibition reaches its midpoint. Lower therefore signals inhibition by little substance.
